Measurements as given in patent US12458605B2, “Lipid nanoparticle” (National University Corporation Hokkaido University, priority 2020, dated 2025).

Legend:
[1] = Storage stability of FlucmRNA-loaded LNP at −80, 5, 25 and 40° C.; assay type: physicochemical; conditions: for period for which quality remained good, −80° C.: maximum storage period 1 week; for quality at production (storage stability criteria): criteria: PDI 0.2 or less, encapsulation 80% or more
Description: Lipid nanoparticles were allowed to stand at each temperature of −80° C., 5° C., 25° C., and 40° C., and after keeping for each period of time, average particle size, PDI, and nucleic acid encapsulation rate were measured. Lipid nanoparticles which satisfy following all three conditions were defined that the quality was remained well: the average particle size is maintained within +/−20 nm based on the date of LNP preparation; PDI remains high uniformity with a value of 0.2 or less; and the nucleic acid encapsulation rate is also maintained at 80% or more. As a result of measuring average particle size, PDI, and nucleic acid encapsulation rate after each FlucmRNA-loaded lipid nanoparticle was allowed to stand at −80° C., 5° C., 25° C., and 40° C. respectively and kept for each period of time, periods of time defined as the quality of the lipid nanoparticles was remained well are shown in Tables 13 and 14. The lipid nanoparticles which remain in good quality with standing at 5° C. for one week or more can be evaluated as having excellent stability.

[2] = siRNA/mRNA encapsulation rate by Ribogreen reagent (section IV); assay type: physicochemical; conditions: for % siRNA encapsulation: F7siRNA-loaded LNP, 50:10:38.5:1.5, N/P ratio 6; for % mRNA encapsulation: FlucmRNA-loaded LNP, 50:10:38.5:1.5
Description: The encapsulation rates of siRNA and mRNA of lipid nanoparticles were measured with Ribogreen reagent. A solution diluted with TE buffer solution was arranged so that lipid nanoparticle concentration as nucleic acid concentration to be 8 μg/mL, as a solution for measuring nanoparticle surface nucleic acid concentration. In addition, a solution for measuring total nucleic acid concentration was arranged so that lipid nanoparticle concentration as nucleic acid concentration to be 1.2 μg/mL, which is 1% (w/w) concentration of X-triton100, by adding X-triton100. For 100 μL of each solution, 100 μL of Ribogreen (registered trademark) reagent (Quant-iT™ RiboGreen™ RNA Reagent, manufactured by Thermofisher Scientific) was mixed well in the wells of 96-well microplate (black, made of polystyrene, flat bottom, manufactured by Corning), and the fluorescence intensity at an excitation wavelength of 485 nm and a measurement wavelength of 528 nm was measured with a microplate reader. Nucleic acid concentration was calculated by calibration curve created by measuring the fluorescence intensity of nucleic acid solution containing 1% X-triton100 (nucleic acid concentration: 0-2.5 μg/mL) as same as aforementioned. Nucleic acid encapsulation rate of each lipid nanoparticle was calculated by the following formula: Encapsulation rate %=(nucleic acid concentration in solution for measuring total nucleic acid concentration (μg/mL)−nucleic acid concentration in solution for measuring nanoparticle surface nucleic acid concentration (μg/mL))/nucleic acid concentration in solution for measuring total nucleic acid concentration (μg/mL)×100. <Results>
The encapsulation rate of mRNA of lipid nanoparticles was measured using Ribogreen (manufactured by life technologies).

spleen = assay: In vivo Fluc activity of FlucmRNA-loaded LNP by in vivo imaging, spleen; conditions: Balb/c mice, 6 hours; for Fluc Activity in spleen: FlucmRNA-loaded LNP i.v. 0.1 mg mRNA/kg; for Fluc activity in the spleen, compared with CL4F6: 0.1 mg mRNA/kg, versus LNP comprising CL4F6 (Tables 5 and 6)
Description: (§1) Then, each prepared FlucmRNA-loaded lipid nanoparticles were administered to Balb/c mice (Charles River Laboratories Japan, Inc., 7 weeks old, female) and in vivo gene expression activity was examined. Specifically, each FlucmRNA-loaded lipid nanoparticles were intravenously administered to Balb/c mice at 0.1 mg mRNA/kg, and Fluc activities in the liver and spleen at 6 hours later were measured. Fluc activity was measured by in vivo imaging system (Perkin Elmer, IVIS200) after administration of VivoGlo Luciferin, In Vivo Grade (Promega, P1041) dissolved with PBS to 15 mg/mL, via tail vein at a dose of 1.5 mg per mouse. The unit of Fluc activity is the emission intensity per unit area (Avg Radiance [p/s/cm2/sr]) at the maximum emission wavelength of about 560 nm. The results of measurement of the Fluc activity (Avg Radiance [p/s/cm2/sr]) in the liver and spleen of mice administered each FlucmRNA-loaded lipid nanoparticles are shown in Tables 5-7.

F7 = assay: In vivo F7 knockdown, plasma F7 enzyme activity (BIOPHEN FVII), Balb/c mice; conditions: i.v. 0.025 mg siRNA/kg, plasma at 24 hours
Description: Then, each prepared F7siRNA-loaded lipid nanoparticles were administered to Balb/c mice (Charles River Laboratories Japan, Inc., 5 weeks old, female) and in vivo F7 knockdown activity was examined. Specifically, BALB/c mice were intravenously administered F7siRNA-loaded lipid nanoparticles comprising the lipids described in Table 9 at 0.025 mg siRNA/kg and F7siRNA-loaded lipid nanoparticles comprising the lipids described in Tables 10 and 11 at 0.025 mg siRNA/kg, and the plasma F7 enzyme activity at 24 hours later was measured using BIOPHEN FVII (Biophen, A221304). Relative plasma F7 enzyme activity (%) of mice administered each F7siRNA-loaded lipid nanoparticles was calculated using plasma F7 enzyme activity of untreated mice as 100%. Furthermore, the ratio was calculated using the relative plasma F7 enzyme activity (%) of mice administered MC3-comprising F7siRNA-loaded lipid nanoparticles as 1. The results of measurement of CL4F6 derivative nanoparticles are shown in Tables 9 and 10, and results of measurement of CL15F6 derivative nanoparticles in Table 11.

liver = assay: In vivo Fluc activity of FlucmRNA-loaded LNP by in vivo imaging, liver; conditions: Balb/c mice, FlucmRNA-loaded LNP i.v. 0.1 mg mRNA/kg, 6 hours
Description: as §1

[3] = Average particle size (ζ-Average) and PDI by dynamic light scattering (Zetasizer Nano ZSP); assay type: physicochemical
Description: The average particle size (ζ-Average) and PDI in PBS(−) of lipid nanoparticles were measured using “Zetasizer Nano ZSP”, an analyzer utilizing dynamic light scattering (manufactured by Malvern).
Measurement of average particle size and PDI of the lipid nanoparticles were carried out with the same method as the measurement of average particle size of mRNA-LNP.
The average particle size (ζ-Average) and PDI in PBS (−) of lipid nanoparticles were measured using “Zetasizer Nano ZSP”, an analyzer utilizing dynamic light scattering (manufactured by Malvern).

[4] = F7siRNA-loaded LNP, 50:10:38.5:1.5, N/P ratio 6
[5] = FlucmRNA-loaded LNP, 50:10:38.5:1.5
[6] = FlucmRNA-loaded LNP, lipid:DSPC:cholesterol:DMG-PEG2K 50:10:38.5:1.5

Molecule	period for which quality remained good, −80° C. [1]	period for which quality remained good, 5° C. ([1]; maximum storage period 5 weeks)	period for which quality remained good, 25° C. ([1]; maximum storage period 5 weeks)	period for which quality remained good, 40° C. (weeks) ([1]; maximum storage period 5 weeks)	quality at production (storage stability criteria) [1]	% siRNA encapsulation [2]	% mRNA encapsulation [2]	Fluc Activity in spleen (spleen)	F7 enzyme activity (%) (F7; untreated mice as 100%)	Fluc Activity in liver (liver)	PDI [3, 4]	ζ-Average (nm) [3, 4]	PDI [3, 5]	ζ-Average (nm) [3, 6]	period for which quality remained good, 40° C. ([1]; maximum storage period 5 weeks)	period for which quality remained good, 40° C. (days) ([1]; maximum storage period 5 weeks)	Fluc activity in the spleen, compared with CL4F6 (spleen)	F7 enzyme activity (Ratio using MC3 as 1) (F7; relative plasma F7 activity of MC3 LNP as 1)
7-hydroxy-7-(4-((1-methylpiperidine-4-carbonyl)oxy)butyl)tridecan-1,13-diyl bis(2-(4,4-dimethylpentan-2-yl)-5,7,7-trimethyloctanoate [CL15G6]	1 week	5 weeks	5 weeks	5 weeks	–	–	–	–	–	–	–	–	–	–	–	–	–	–
CCCCC(CC)C(=O)OCCCCCCC(O)(CCCCCCOC(=O)C(CC)CCCC)CCCCN(CCC)CCC (stereo not drawn) [CL4F 6-2]	–	–	–	–	Does not meet the criteria for “good” at production	56.9%	41.4%	1.24E+05 Avg Radiance [p/s/cm2/sr]	54.8%	1.34E+03 Avg Radiance [p/s/cm2/sr]	0.298	274.50 nm	0.069	218.20 nm	–	–	–	–
CCCCC(CCCC)C(=O)OCCCCCCC(O)(CCCCCCOC(=O)C(CCCC)CCCC)CCCCN(CCC)CCC [CL4F 6-4]	0 week	5 weeks	5 weeks	–	–	–	97.2%	2.95E+05 Avg Radiance [p/s/cm2/sr]	–	2.17E+05 Avg Radiance [p/s/cm2/sr]	–	–	0.023	141.10 nm	3 days	–	–	–
CCCCCC(CCC)C(=O)OCCCCCCC(O)(CCCCCCOC(=O)C(CCC)CCCCC)CCCCN(CCC)CCC (stereo not drawn) [CL4F 7-3]	0 week	5 weeks	5 weeks	–	–	–	98.1%	6.64E+05 Avg Radiance [p/s/cm2/sr]	–	3.43E+05 Avg Radiance [p/s/cm2/sr]	–	–	0.025	133.90 nm	–	0 day days	–	–
CCCCCC(CCCC)C(=O)OCCCCCCC(O)(CCCCCCOC(=O)C(CCCC)CCCCC)CCCCN(CCC)CCC (stereo not drawn) [CL4F 7-4]	0 week	5 weeks	5 weeks	1 week weeks	–	–	98.8%	7.43E+06 Avg Radiance [p/s/cm2/sr]	–	5.05E+06 Avg Radiance [p/s/cm2/sr]	–	–	0.032	113.50 nm	–	–	higher Fluc activity	–
CCCCCCCC(CCCC)C(=O)OCCCCCCC(O)(CCCCCCOC(=O)C(CCCC)CCCCCCC)CCCCN(CCC)CCC (stereo not drawn) [CL4F 9-4]	1 week	5 weeks	5 weeks	1 week weeks	–	–	99.1%	8.69E+06 Avg Radiance [p/s/cm2/sr]	–	2.55E+07 Avg Radiance [p/s/cm2/sr]	–	–	0.002	95.29 nm	–	–	higher Fluc activity	–
CCCCCCCC(CCCCCC)C(=O)OCCCCCCC(O)(CCCCCCOC(=O)C(CCCCCC)CCCCCCC)CCCCN(CCC)CCC (stereo not drawn) [CL4F 9-6]	1 week	5 weeks	5 weeks	5 weeks	–	–	99.1%	3.89E+06 Avg Radiance [p/s/cm2/sr]	–	9.61E+07 Avg Radiance [p/s/cm2/sr]	–	–	0.021	89.18 nm	–	–	–	–
CCCCCCCCCCCCCCCC(=O)OCCCCCCC(O)(CCCCCCOC(=O)CCCCCCCCCCCCCCC)CCCCN(CCC)CCC [CL4F 16-0]	–	–	–	–	Does not meet the criteria for “good” at production	–	86.2%	2.83E+05 Avg Radiance [p/s/cm2/sr]	–	2.32E+04 Avg Radiance [p/s/cm2/sr]	–	–	0.225	158.30 nm	–	–	–	–
CCCCC(CC)C(=O)OCCCCCCC(O)(CCCCCCOC(=O)C(CC)CCCC)CCCCOC(=O)C1CCN(C)CC1 (stereo not drawn) [CL15F 6-2]	–	–	–	–	Does not meet the criteria for “good” at production	100.4%	–	–	–	–	0.534	390.7 nm	–	–	–	–	–	1.87
